The nature of the data set: physchem. The conditions noted are these: water.

The values below come from patent publication EP4374708A1, “NUTRITIONAL SUPPLEMENT PREPARATION” (Avea Life AG, priority 2022, dated 2024).

By solubility is commonly meant the dissolved amount per volume that the medium holds. Read a high solubility as much dissolved substance.

≈ marks a conversion by molar mass, not a printed value.

Compound `O=C(O)[C@@H]1C[C@@H](O)CN1` [hydroxyproline] showed a solubility of 198 mM (≈ 26 mg/mL).
